Several values for one entry are separate records, joined by “and”; a condition that tells them apart may be missing. Equal entries are not always repeated. Toxic doses and inconclusive results are not listed.
Test system: P388 leukemia ip, CD2F1 mice, survival T/C
Experiment: NCI In Vivo Anticancer Drug Screen. Data for tumor model P388 Leukemia (intraperitoneal) in CD2F1 (CDF1) mice
Settings: endpoint: median survival time, higher = longer survival
Procedure, shortened: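 Mice carrying the transplanted tumor received test compound or vehicle. Survival was recorded in each group, and the value is the treated-group measurement divided by that of the vehicle-treated control group.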

[1] = dose: 50.0 mg/kg/injection, schedule: Q04DX003 (ip), vehicle: saline
[2] = dose: 50.0 mg/kg/injection, schedule: Q01DX005 (ip), vehicle: Klucel (hydroxypropylcellulose) (HPC)
[3] = dose: 100.0 mg/kg/injection, schedule: Q01DX005 (ip), vehicle: Klucel (hydroxypropylcellulose) (HPC)
[4] = dose: 200.0 mg/kg/injection, schedule: Q01DX005 (ip), vehicle: Klucel (hydroxypropylcellulose) (HPC)
[5] = dose: 100.0 mg/kg/injection, schedule: Q04DX003 (ip), vehicle: saline with Tween-80
[6] = dose: 200.0 mg/kg/injection, schedule: Q04DX003 (ip), vehicle: saline with Tween-80

c1ccc2c3c([nH]c2c1)[C@@H]1CCN2CCC[C@@H]2N1CC3
T/C (dose: 5.75 mg/kg/injection, schedule: Q01DX005 (ip), vehicle: Klucel (hydroxypropylcellulose) (HPC)): 101 % of control | T/C (dose: 11.5 mg/kg/injection, schedule: Q01DX005 (ip), vehicle: Klucel (hydroxypropylcellulose) (HPC)): 100 % of control | T/C (dose: 23.0 mg/kg/injection, schedule: Q01DX005 (ip), vehicle: Klucel (hydroxypropylcellulose) (HPC)): 95 % of control | T/C (dose: 46.0 mg/kg/injection, schedule: Q01DX005 (ip), vehicle: Klucel (hydroxypropylcellulose) (HPC)): 93 % of control

CCOC(=O)c1cc(OC(C)=O)c2ccc(OC)c(OC)c2c1
T/C (dose: 6.25 mg/kg/injection, schedule: Q01DX009 (ip), vehicle: distilled water + Tween-80): 101 % of control and 105 % of control and 90 % of control | T/C (dose: 50.0 mg/kg/injection, schedule: Q01DX009 (ip), vehicle: distilled water + Tween-80): 91 % of control and 93 % of control and 97 % of control | T/C (dose: 100.0 mg/kg/injection, schedule: Q01DX009 (ip), vehicle: distilled water + Tween-80): 91 % of control | T/C (dose: 200.0 mg/kg/injection, schedule: Q01DX009 (ip), vehicle: distilled water + Tween-80): 93 % of control

O=C(Nc1ccc(OCc2ccccc2)cc1)c1cc2c(cc1Br)OCO2
T/C (dose: 25.0 mg/kg/injection, schedule: Q01DX009 (ip), vehicle: other): 106 % of control | T/C (dose: 50.0 mg/kg/injection, schedule: Q01DX009 (ip), vehicle: other): 104 % of control | T/C (dose: 100.0 mg/kg/injection, schedule: Q01DX009 (ip), vehicle: other): 106 % of control | T/C (dose: 200.0 mg/kg/injection, schedule: Q01DX009 (ip), vehicle: other): 100 % of control | T/C (dose: 400.0 mg/kg/injection, schedule: Q01DX009 (ip), vehicle: other): 100 % of control

O=C1c2ccccc2-c2nc3cncnc3nc21 (tested in a mixture with another compound)
T/C [1]: 109 % of control | T/C (dose: 100.0 mg/kg/injection, schedule: Q04DX003 (ip), vehicle: saline): 109 % of control | T/C (dose: 200.0 mg/kg/injection, schedule: Q04DX003 (ip), vehicle: saline): 104 % of control

N=C(N)c1ccc(OCCCOc2ccc(C(=N)N)cc2Br)c(Br)c1
T/C (dose: 6.25 mg/kg/injection, schedule: Q04DX003 (ip), vehicle: saline): 100 % of control | T/C (dose: 12.5 mg/kg/injection, schedule: Q04DX003 (ip), vehicle: saline): 109 % of control | T/C (dose: 25.0 mg/kg/injection, schedule: Q01DX009 (ip), vehicle: saline): 160 % of control | T/C (dose: 25.0 mg/kg/injection, schedule: Q04DX003 (ip), vehicle: saline): 113 % of control | T/C (dose: 33.0 mg/kg/injection, schedule: Q04DX003 (ip), vehicle: saline): 113 % of control | T/C (dose: 50.0 mg/kg/injection, schedule: Q01DX009 (ip), vehicle: saline): 90 % of control | T/C [1]: 113 % of control

CCC1(O)CC2CN(CCc3c([nH]c4ccccc34)C(C(=O)OC)(c3cc4c(cc3OC)N(C)C3C(O)(C(=O)NCCSSCCNC(=O)C5(O)C(O)C6(CC)C=CCN7CCC8(c9cc(C%10(C(=O)OC)CC%11CN(CCc%12c%10[nH]c%10ccccc%12%10)CC(O)(CC)C%11)c(OC)cc9N(C)C58)C76)C(O)C5(CC)C=CCN6CCC43C65)C2)C1 (configuration not stated)
T/C (dose: 0.1 mg/kg/injection, schedule: Q01DX009 (ip), vehicle: saline): 166 % of control | T/C (dose: 0.19 mg/kg/injection, schedule: Q04DX003 (ip), vehicle: saline): 151 % of control | T/C (dose: 0.2 mg/kg/injection, schedule: Q01DX009 (ip), vehicle: saline): 202 % of control | T/C (dose: 0.31 mg/kg/injection, schedule: Q04DX003 (ip), vehicle: saline): 170 % of control | T/C (dose: 0.38 mg/kg/injection, schedule: Q04DX003 (ip), vehicle: saline): 183 % of control | T/C (dose: 0.39 mg/kg/injection, schedule: Q04DX003 (ip), vehicle: saline): 186 % of control | T/C (dose: 0.4 mg/kg/injection, schedule: Q01DX009 (ip), vehicle: saline): 227 % of control | T/C (dose: 0.63 mg/kg/injection, schedule: Q04DX003 (ip), vehicle: saline): 190 % of control | T/C (dose: 0.7 mg/kg/injection, schedule: Q04DX003 (ip), vehicle: saline): 161 % of control | T/C (dose: 0.75 mg/kg/injection, schedule: Q04DX003 (ip), vehicle: saline): 209 % of control and 228 % of control | T/C (dose: 1.0 mg/kg/injection, schedule: Q04DX003 (ip), vehicle: saline): 212 % of control | T/C (dose: 1.25 mg/kg/injection, schedule: Q04DX003 (ip), vehicle: saline): 208 % of control | T/C (dose: 1.6 mg/kg/injection, schedule: Q04DX003 (ip), vehicle: saline): 231 % of control | T/C (dose: 2.4 mg/kg/injection, schedule: Q04DX003 (ip), vehicle: saline): 119 % of control | T/C (dose: 2.5 mg/kg/injection, schedule: Q04DX003 (ip), vehicle: saline): 236 % of control

COc1ccc2[nH]c3c(c(=O)n(C)c(=O)n3C)c2c1
T/C [2]: 92 % of control | T/C [3]: 93 % of control | T/C [4]: 92 % of control

c1ccc2c(c1)Sc1ccccc1N2Cc1cnc[nH]1
T/C (dose: 50.0 mg/kg/injection, schedule: Q01DX009 (ip), vehicle: Klucel (hydroxypropylcellulose) (HPC)): 101 % of control | T/C (dose: 50.0 mg/kg/injection, schedule: Q01DX009 (ip), vehicle: alcohol): 114 % of control | T/C (dose: 100.0 mg/kg/injection, schedule: Q01DX009 (ip), vehicle: Klucel (hydroxypropylcellulose) (HPC)): 109 % of control | T/C (dose: 100.0 mg/kg/injection, schedule: Q01DX009 (ip), vehicle: alcohol): 114 % of control | T/C (dose: 200.0 mg/kg/injection, schedule: Q01DX009 (ip), vehicle: Klucel (hydroxypropylcellulose) (HPC)): 118 % of control

CCCCCCCCCCCCCCCCNc1cccc2ccccc12
T/C (dose: 100.0 mg/kg/injection, schedule: Q01DX009 (ip), vehicle: saline sonified): 95 % of control | T/C (dose: 100.0 mg/kg/injection, schedule: Q01DX009 (ip), vehicle: saline with Tween-80): 100 % of control | T/C [5]: 95 % of control | T/C (dose: 200.0 mg/kg/injection, schedule: Q01DX009 (ip), vehicle: saline sonified): 105 % of control | T/C (dose: 200.0 mg/kg/injection, schedule: Q01DX009 (ip), vehicle: saline with Tween-80): 90 % of control | T/C [6]: 86 % of control | T/C (dose: 400.0 mg/kg/injection, schedule: Q01DX009 (ip), vehicle: saline sonified): 95 % of control | T/C (dose: 400.0 mg/kg/injection, schedule: Q01DX009 (ip), vehicle: saline with Tween-80): 90 % of control | T/C (dose: 400.0 mg/kg/injection, schedule: Q04DX003 (ip), vehicle: saline with Tween-80): 95 % of control

NC(CCCCCCC(N)C(=O)c1ccccc1)C(=O)c1ccccc1 (configuration not stated)
T/C (dose: 60.0 mg/kg/injection, schedule: Q01DX005 (ip), vehicle: saline with Tween-80): 98 % of control | T/C (dose: 120.0 mg/kg/injection, schedule: Q01DX005 (ip), vehicle: saline with Tween-80): 98 % of control | T/C (dose: 240.0 mg/kg/injection, schedule: Q01DX005 (ip), vehicle: saline with Tween-80): 91 % of control

Cc1sc2ccc3ccccc3c2[n+]1C
T/C (dose: 15.0 mg/kg/injection, schedule: Q01DX005 (ip), vehicle: saline): 100 % of control and 106 % of control and 95 % of control | T/C (dose: 30.0 mg/kg/injection, schedule: Q01DX005 (ip), vehicle: saline): 104 % of control and 108 % of control and 118 % of control | T/C (dose: 60.0 mg/kg/injection, schedule: Q01DX005 (ip), vehicle: saline): 116 % of control | T/C (dose: 120.0 mg/kg/injection, schedule: Q01DX005 (ip), vehicle: saline): 91 % of control and 114 % of control

CC1CC(C)(C)N=C(CCC2CCCCCC2=O)O1 (configuration not stated)
T/C (dose: 50.0 mg/kg/injection, schedule: Q04DX003 (ip), vehicle: saline with Tween-80): 100 % of control | T/C [5]: 100 % of control | T/C [6]: 100 % of control

CCN(CC)CCOC(=O)C(OCCCc1ccccc1)(c1ccccc1)c1ccccc1
T/C [2]: 111 % of control | T/C [3]: 112 % of control

CC1(C)OC2COC3OC(C)(C)OC3(/C=N\NC(=O)c3cc4cc(OCc5ccccc5)ccc4[nH]3)C2O1 (configuration not stated)
T/C [2]: 101 % of control | T/C [3]: 95 % of control | T/C [4]: 97 % of control

CC1C(C)(C)P(C)(=O)C1(C)C (configuration not stated)
T/C (dose: 100.0 mg/kg/injection, schedule: Q04DX002 (ip), vehicle: saline with Tween-80): 89 % of control | T/C (dose: 200.0 mg/kg/injection, schedule: Q04DX002 (ip), vehicle: saline with Tween-80): 97 % of control

C/C(=N\NC(=S)NCc1ccccc1)c1nccnc1C
T/C (dose: 3.13 mg/kg/injection, schedule: Q01DX005 (ip), vehicle: saline with Tween-80): 104 % of control | T/C (dose: 6.25 mg/kg/injection, schedule: Q01DX005 (ip), vehicle: saline with Tween-80): 109 % of control and 112 % of control

O=C(NC1C=Nc2ccc(Cl)cc2NC1=O)c1ccc2ccccc2c1 (configuration not stated)
T/C (dose: 60.0 mg/kg/injection, schedule: Q01DX005 (ip), vehicle: Klucel (hydroxypropylcellulose) (HPC)): 90 % of control | T/C (dose: 120.0 mg/kg/injection, schedule: Q01DX005 (ip), vehicle: Klucel (hydroxypropylcellulose) (HPC)): 91 % of control | T/C (dose: 240.0 mg/kg/injection, schedule: Q01DX005 (ip), vehicle: Klucel (hydroxypropylcellulose) (HPC)): 92 % of control
